Laboratory results reported in the NIST ThermoML archive (doi:10.1016/j.jct.2019.06.032).

Experiments:
[1] = xn = mol fraction of the nth substance listed; details: 101 kPa, Liquid; for viscosity: Capillary tube (Ostwald / Ubbelohde) method; for mass density: Vibrating tube method
[2] = 101 kPa, Liquid; for viscosity: Capillary tube (Ostwald / Ubbelohde) method; for mass density: Vibrating tube method

O [water] + NCCO
[1], x2 = 0
Details	mass density [kg/m3]	viscosity [mPa·s]
293.15 K	–	1.004
303.15 K	–	0.813
313.15 K	992.3	0.662
323.15 K	–	0.57
333.15 K	983.3	0.483

CCN(CC)CCO [(diethylamino)ethanol]
[2]
Details	mass density [kg/m3]	viscosity [mPa·s]
293.15 K	891.2	4.848
303.15 K	874.4	3.41
313.15 K	865.4	2.466
323.15 K	856.4	1.855
333.15 K	845.6	1.431

O [water] + CCN(CC)CCO
[1], x2 = 0
Details	mass density [kg/m3]	viscosity [mPa·s]
293.15 K	–	1.004
303.15 K	–	0.813
313.15 K	992.3	0.662
323.15 K	–	0.57
333.15 K	983.3	0.483

NCCO [2-aminoethan-1-ol]
[2]
Details	mass density [kg/m3]	viscosity [mPa·s]
293.15 K	1016.9	23.79
303.15 K	1009.5	14.83
313.15 K	1001.1	9.89
323.15 K	992.7	6.872
333.15 K	984.3	4.99

NCCO [2-aminoethan-1-ol] + CCN(CC)CCO
[1], x1 = 1
Details	mass density [kg/m3]	viscosity [mPa·s]
293.15 K	1016.9	23.79
303.15 K	1009.5	14.83
313.15 K	1001.1	9.89
323.15 K	992.7	6.872
333.15 K	984.3	4.99
